Assay results as given in patent US8962621B2 (Shanghai Institute of Pharmaceutical Industry, priority 2010, dated 2015).
Counter-ions that a name gives are not always drawn.

Experiments:
5-HT Transporter (hSERT) = 5-HT Transporter (hSERT) (Homo sapiens, UniProt P31645); assay: Inhibition of [3H]-5-HT reuptake in HEK 293 cells stably expressing hSERT; details: for 5-HT Reuptake Inhibition: 10 μmol/L final concentration (b487 prints 0.1 mmol/L), HEK 293 hSERT cells, [3H]-5-HT;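 for all read-outs here: compound preincubated 10 min at 30 °C, then 10 min uptake, filter-bound radioactivity counted by scintillation, inhibition relative to total (blank) minus non-specific (positive control) uptake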
Chain of 5-HT Transporter (hSERT) (P31645 whole entry): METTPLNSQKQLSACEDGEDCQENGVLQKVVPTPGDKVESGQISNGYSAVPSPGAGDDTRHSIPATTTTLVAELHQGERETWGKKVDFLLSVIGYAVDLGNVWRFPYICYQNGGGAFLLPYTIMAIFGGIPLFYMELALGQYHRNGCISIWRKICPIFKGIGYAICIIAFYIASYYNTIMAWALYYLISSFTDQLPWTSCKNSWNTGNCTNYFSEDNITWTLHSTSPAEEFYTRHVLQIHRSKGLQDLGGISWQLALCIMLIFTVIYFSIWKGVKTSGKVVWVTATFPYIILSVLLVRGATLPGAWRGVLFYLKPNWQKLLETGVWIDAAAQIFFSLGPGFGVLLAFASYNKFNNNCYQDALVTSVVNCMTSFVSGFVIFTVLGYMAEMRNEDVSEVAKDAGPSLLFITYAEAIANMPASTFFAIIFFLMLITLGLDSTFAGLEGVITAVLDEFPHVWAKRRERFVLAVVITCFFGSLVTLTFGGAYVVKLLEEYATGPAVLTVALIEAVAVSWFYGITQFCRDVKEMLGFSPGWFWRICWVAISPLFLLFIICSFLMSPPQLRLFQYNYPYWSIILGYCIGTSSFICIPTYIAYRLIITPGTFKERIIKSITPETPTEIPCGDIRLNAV

NA Transporter (hNAT) = NA Transporter (hNAT) (Homo sapiens, UniProt P23975); assay: Inhibition of [3H]-NA reuptake in HEK 293 cells stably expressing hNAT; details: 10 μmol/L final concentration (b487 prints 0.1 mmol/L); HEK 293 hNAT cells, [3H]-NA
Chain of NA Transporter (hNAT) (P23975 whole entry): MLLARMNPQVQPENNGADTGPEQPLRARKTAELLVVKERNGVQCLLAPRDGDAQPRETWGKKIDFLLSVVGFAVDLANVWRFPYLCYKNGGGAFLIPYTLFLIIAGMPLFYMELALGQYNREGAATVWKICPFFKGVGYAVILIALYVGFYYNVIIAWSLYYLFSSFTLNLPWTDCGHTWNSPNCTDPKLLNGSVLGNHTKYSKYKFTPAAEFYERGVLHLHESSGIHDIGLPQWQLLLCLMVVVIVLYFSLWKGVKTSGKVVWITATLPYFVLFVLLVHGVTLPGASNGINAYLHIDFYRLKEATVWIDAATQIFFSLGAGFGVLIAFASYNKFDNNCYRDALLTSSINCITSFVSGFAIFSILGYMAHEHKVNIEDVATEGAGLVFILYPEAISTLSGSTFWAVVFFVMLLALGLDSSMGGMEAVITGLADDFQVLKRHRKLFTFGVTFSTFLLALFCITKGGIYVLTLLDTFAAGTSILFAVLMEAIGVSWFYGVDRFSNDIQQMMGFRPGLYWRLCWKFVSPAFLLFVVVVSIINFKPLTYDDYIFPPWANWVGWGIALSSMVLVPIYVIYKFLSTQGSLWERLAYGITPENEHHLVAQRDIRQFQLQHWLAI

DA Transporter (hDAT) = DA Transporter (hDAT) (Homo sapiens, UniProt Q01959); assay: Inhibition of [3H]-DA reuptake in HEK 293 cells stably expressing hDAT; details: for DA Reuptake Inhibition: 10 μmol/L final concentration (b487 prints 0.1 mmol/L), HEK 293 hDAT cells, [3H]-DA
Chain of DA Transporter (hDAT) (Q01959 whole entry): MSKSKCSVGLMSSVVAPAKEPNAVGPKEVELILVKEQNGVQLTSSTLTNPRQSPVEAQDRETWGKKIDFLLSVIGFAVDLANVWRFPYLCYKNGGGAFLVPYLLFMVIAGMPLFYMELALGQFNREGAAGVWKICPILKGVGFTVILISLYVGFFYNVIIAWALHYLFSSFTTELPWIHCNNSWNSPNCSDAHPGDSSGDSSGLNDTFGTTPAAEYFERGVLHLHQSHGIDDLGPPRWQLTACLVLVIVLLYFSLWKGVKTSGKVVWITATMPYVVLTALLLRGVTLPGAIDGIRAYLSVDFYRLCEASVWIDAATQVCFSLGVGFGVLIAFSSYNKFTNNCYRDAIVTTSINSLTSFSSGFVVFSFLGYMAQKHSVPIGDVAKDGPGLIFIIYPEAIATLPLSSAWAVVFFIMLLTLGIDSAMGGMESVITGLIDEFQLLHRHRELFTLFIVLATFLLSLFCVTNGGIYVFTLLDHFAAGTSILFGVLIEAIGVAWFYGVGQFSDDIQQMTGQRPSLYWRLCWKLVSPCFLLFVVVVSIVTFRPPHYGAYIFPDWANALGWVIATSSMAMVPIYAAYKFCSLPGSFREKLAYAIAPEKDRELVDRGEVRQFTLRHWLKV

male ICR mice = assay: Mice tail suspension test; type: in vivo
Method: Through intragastric administration, 10 mL·kg^−1 of each sample (physiological saline for the blank control group) is administrated. After 1 h of the treatment, the mouse is held with a medical tape at a position around 2 cm from the tip of its tail and hung upside-down in the suspension cage with its head 5 cm away from the bottom of the cage. The observation starts right after the mouse is suspended for 2 min and continues for 4 min. The time during which the mouse is immobile (no struggling or only tiny movements of its body/limbs) in this 4 min is accumulated (IT, immobility time). The percentage of the improvement is calculated according to the equation: Improvement %=[IT (blank control group)−IT (compound treatment group)]/IT (blank control group)×100%

male Kunming mice = assay: Mice forced swimming test; type: in vivo
Method: Through intragastric administration, 10 mL·kg^−1 of each sample (physiological saline for the blank control group) is administrated. The mice are pre-screened for swimming one day before the actual test. The mouse is placed into water (25° C., 10 cm deep) in a glass tank (height 20 cm, diameter 14 cm) and forced to swim for 6 min. Those who stop swimming at around 70-160 s are chosen for the actual test which starts 24 h later. After 1 h of the administration, the forced swimming test is performed by placing the animal into the above-mentioned environment to swim for 6 min. The accumulative immobility time for the last 4 min is recorded. Data is statistically analyzed with t-test.

## CN(C)CCC(c1ccc(Cl)c(Cl)c1)N1CCNCC1 (stereo not drawn) (as salt: hydrochloride) [VI-3, N,N-dimethyl-3-(3,4-dichlorophenyl)-3-(piperazin-1-yl)-propylamine]
other
  melting point: 257.3 to 258.9 °C

## COc1ccc2cc(C(CCN(C)C)N3CCCC3)ccc2c1Cl (stereo not drawn) (as salt: hydrochloride) [VI-36, N,N-dimethyl-3-(5-chloro-6-methoxynaphthalen-2-yl)-3-(pyrrolidin-1-yl)-propylamine]
other
  melting point: 215.2 to 216.9 °C

## Clc1ccc(C(CCN2CCOCC2)N2CCCC2)cc1Cl (stereo not drawn) [VI-6]
5-HT Transporter (hSERT)
  5-HT Reuptake Inhibition: 106.3%
NA Transporter (hNAT)
  NA Reuptake Inhibition: 101.4%
DA Transporter (hDAT)
  DA Reuptake Inhibition: 106.4%
Male ICR mice; 20.0 mg/kg single intragastric administration, 1 h before test, 4 min observation, n=12
  IT (sec), immobility time: 25.68 ± 14.25 s
Male ICR mice; 20.0 mg/kg single oral administration, versus blank control IT
  Improvement (%): 74.11%
Male ICR mice; 20 mg/kg, efficacy similar to Venlafaxine
  effect on immobility time in the tail suspension test (in words): significant reduction in the immobility time
Male Kunming mice; 20 mg/kg
  effect in the forced swimming test (in words): significant difference from that of the blank control
Male Kunming mice; 20.0 mg/kg single intragastric administration, 1 h before test, last 4 min of 6 min, n=12
  IT (sec), immobility time: 79.3 ± 53.1 s

## CN(CCCC1(c2ccc3c(c2)OCO3)CCCNC1)Cc1ccccc1 (stereo not drawn) (as salt: hydrochloride) [VI-53, N-methyl-N-benzyl-3-(1,2-methylenedioxybenzen-4-yl)-3-piperidyl-propylamine]
other
  melting point: 285.6 to 288.9 °C

## CN(CCCC1(c2cc3ccccc3s2)CCCNC1)Cc1ccccc1 (stereo not drawn) (as salt: hydrochloride) [VI-23, N-methyl-N-benzyl-3-(benzothiophen-2-yl)-3-piperidyl-propylamine]
other
  melting point: 298.5 to 300 °C

## CN(CCC(c1cc2ccccc2s1)N1CCCC1)Cc1ccccc1 (stereo not drawn) (as salt: hydrochloride) [VI-20, N-methyl-N-benzyl-3-(benzothiophen-2-yl)-3-(pyrrolidin-1-yl)-propylamine]
other
  melting point: 287.5 to 289.2 °C

## CN(CCCC1(c2csc3ccccc23)CCCNC1)Cc1ccccc1 (stereo not drawn) (as salt: hydrochloride) [VI-17, N-methyl-N-benzyl-3-(benzothiophen-3-yl)-3-piperidyl-propylamine]
other
  melting point: 312 to 313.5 °C

## CN(C)CCC(c1cc2ccccc2s1)N1CCCC1 (stereo not drawn) (as salt: hydrochloride) [VI-19, N,N-dimethyl-3-(benzothiophen-2-yl)-3-(pyrrolidin-1-yl)-propylamine]
other
  melting point: 255 to 257.2 °C

## COc1ccc(C(CCN(C)Cc2ccccc2)N2CCOCC2)cc1OC (stereo not drawn) [VI-56, N-methyl-N-benzyl-3-(3,4-dimethoxyphenyl)-3-morpholinyl-propylamine]
5-HT Transporter (hSERT)
  5-HT Reuptake Inhibition: 78.0%
NA Transporter (hNAT)
  NA Reuptake Inhibition: 68.7%
DA Transporter (hDAT)
  DA Reuptake Inhibition: 59.2%

## CN(C)CCCC1(c2ccc(Cl)c(Cl)c2)CCCNC1 (stereo not drawn) (as salt: hydrochloride) [VI-7, N,N-dimethyl-3-(3,4-dichlorophenyl)-3-piperidyl-propylamine]
other
  melting point: 169.1 to 171.8 °C

## CN(CCC(c1csc2ccccc12)N1CCCC1)Cc1ccccc1 (stereo not drawn) (as salt: hydrochloride) [VI-14, N-methyl-N-benzyl-3-(benzothiophen-3-yl)-3-(pyrrolidin-1-yl)-propylamine]
other
  melting point: 297 to 299.5 °C

## CN(C)CCCC(c1ccc(Cl)c(Cl)c1)N1CCOCC1 (stereo not drawn) [VI-44, N,N-dimethyl-4-(3,4-dichlorophenyl)-4-morpholinyl-butylamine]
5-HT Transporter (hSERT)
  5-HT Reuptake Inhibition: 45.8%
NA Transporter (hNAT)
  NA Reuptake Inhibition: 54.6%
DA Transporter (hDAT)
  DA Reuptake Inhibition: 67.0%

## COc1ccc(C(CCN(C)C)N2CCOCC2)cc1 (stereo not drawn) [VI-38, N,N-dimethyl-3-(4-methoxyphenyl)-3-morpholinyl-propylamine]
5-HT Transporter (hSERT)
  5-HT Reuptake Inhibition: 25.9%
NA Transporter (hNAT)
  NA Reuptake Inhibition: 29.3%
DA Transporter (hDAT)
  DA Reuptake Inhibition: 23.0%

## Clc1ccc([C@]23CNC[C@H]2C3)cc1Cl [DOV-21947, reference compound]
5-HT Transporter (hSERT); HEK293, read-out: 5-HT Reuptake Inhibition
  inhibition at 10 µM: 100%
DA Transporter (hDAT); HEK293, read-out: DA Reuptake Inhibition
  inhibition at 10 µM: 100%

## COc1ccc2cc(C(CCN(C)C)N3CCOCC3)ccc2c1Cl (stereo not drawn) [VI-34, N,N-dimethyl-3-(5-chloro-6-methoxynaphthalen-2-yl)-3-morpholinyl-propylamine]
5-HT Transporter (hSERT)
  5-HT Reuptake Inhibition: 47.3%
NA Transporter (hNAT)
  NA Reuptake Inhibition: 49.5%
DA Transporter (hDAT)
  DA Reuptake Inhibition: 2.48%

## CCCN(C)C1(c2ccc(OC)c(OC)c2)CCCNC1 (stereo not drawn) (as salt: hydrochloride)
other
  melting point: 195.2 to 197.8 °C

## CCCN(C)C1(c2csc3ccccc23)CCCNC1 (stereo not drawn) (as salt: hydrochloride)
other
  melting point: 193.2 to 195 °C

## CN(C)CCC(c1ccc(F)cc1F)N1CCOCC1 (stereo not drawn) [VI-48, N,N-dimethyl-3-(2,4-difluorophenyl)-3-morpholinyl-propylamine]
5-HT Transporter (hSERT)
  5-HT Reuptake Inhibition: 65.0%
NA Transporter (hNAT)
  NA Reuptake Inhibition: 58.0%
DA Transporter (hDAT)
  DA Reuptake Inhibition: 45.6%

## CN(C)CCC(c1csc2ccccc12)N1CCCC1 (stereo not drawn) (as salt: hydrochloride) [VI-13, N,N-dimethyl-3-(benzothiophen-3-yl)-3-(pyrrolidin-1-yl)-propylamine]
other
  melting point: 259.7 to 262.2 °C

## COc1ccc(C(CCN(C)C)N2CCCC2)cc1 (stereo not drawn) (as salt: hydrochloride) [VI-37, N,N-dimethyl-3-(4-methoxyphenyl)-3-(pyrrolidin-1-yl)-propylamine]
other
  melting point: 175.2 to 178.4 °C

## COc1ccc(C2(CCCN(C)Cc3ccccc3)CCCNC2)cc1OC (stereo not drawn) (as salt: hydrochloride) [VI-59, N-methyl-N-benzyl-3-(3,4-dimethoxyphenyl)-3-piperidyl-propylamine]
other
  melting point: 256.6 to 258.9 °C

## CNCCC(c1cc2ccccc2s1)N1CCCC1 (stereo not drawn) (as salt: hydrochloride) [VI-21, N-methyl-3-(benzothiophen-2-yl)-3-(pyrrolidin-1-yl)-propylamine]
other
  melting point: 175 to 176.8 °C

## CN(C)CCC(c1cccs1)N1CCOCC1 (stereo not drawn) [VI-61, N,N-dimethyl-3-(thien-2-yl)-3-morpholinyl-propylamine]
5-HT Transporter (hSERT)
  5-HT Reuptake Inhibition: 78.9%
NA Transporter (hNAT)
  NA Reuptake Inhibition: 75.0%
DA Transporter (hDAT)
  DA Reuptake Inhibition: 65.6%

## CNCCC(c1csc2ccccc12)N1CCCC1 (stereo not drawn) (as salt: hydrochloride) [VI-15, N-methyl-3-(benzothiophen-3-yl)-3-(pyrrolidin-1-yl)-propylamine]
other
  melting point: 189.3 to 192 °C

## CN(C)CCCC(c1csc2ccccc12)N1CCNCC1 (stereo not drawn) (as salt: hydrochloride) [VI-47, N,N-dimethyl-4-(benzothiophen-3-yl)-4-(piperazin-1-yl)-butylamine]
other
  melting point: 249.6 to 252.2 °C

## CN(C)CCC(c1cc2ccccc2s1)N1CCOCC1 (stereo not drawn) [VI-25, N,N-dimethyl-3-(benzothiophen-2-yl)-3-morpholinyl-propylamine]
5-HT Transporter (hSERT)
  5-HT Reuptake Inhibition: 91.5%
NA Transporter (hNAT)
  NA Reuptake Inhibition: 96.8%
DA Transporter (hDAT)
  DA Reuptake Inhibition: 39.2%

## CCCN(C)C1(c2ccc3c(c2)OCO3)CCCNC1 (stereo not drawn) (as salt: hydrochloride)
other
  melting point: 189.3 to 192.4 °C

## CCCN(C)C1(c2cc3ccccc3s2)CCCNC1 (stereo not drawn) (as salt: hydrochloride) [VI-24, N-methyl-3-(benzothiophen-2-yl)-3-piperidyl-propylamine]
other
  melting point: 185.3 to 187 °C

## CN(C)CCCC(c1ccc(Cl)c(Cl)c1)N1CCNCC1 (stereo not drawn) (as salt: hydrochloride) [VI-45, N,N-dimethyl-4-(3,4-dichlorophenyl)-4-(piperazin-1-yl)-butylamine]
other
  melting point: 245.6 to 248.2 °C
